Source: patent US20250346600A1, “TRICYCLIC DERIVATIVES AND RELATED USES” (MOMA Therapeutics, Inc., priority 2023, published 2025)
Like-named read-outs stand apart in the source and are kept apart here.

What was measured:
[1] = target: T1, Full length WRN protein (aa 2-1432) (Homo sapiens (Human), UniProt Q14191); assay: WRN ATPase ADP-Glo biochemical assay, Assay Format B (100 μM ATP); details: 0.25 nM WRN, 100 nM C6.18 ssDNA, 60 min preincubation, read-out: ATPase ADPGlo AC50 (uM)- Assay Format B
HCT116 cells = assay: HCT116 (MSI) 7 day viability, CellTiter Glo; assay type: cell-based; details: 7 days, read-out: HCT116 (MSI) Viability 7 Day Abs AC50
Summary of the method: (§1)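 Luminescence read-out (CellTiter Glo) after 7-day compound exposure at 37 °C. Seeding density 50 cells/well for HCT116, 500 cells/well for HT29. Background from cell-free medium wells; IC50 by four-parameter logistic fit, geometric mean of at least 2 replicates.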

[2] = target: T1, Full length WRN protein (aa 2-1432); assay: WRN ATPase ADP-Glo biochemical assay, Assay Format A (10 μM ATP); details: 0.25 nM WRN, 100 nM C6.18 ssDNA, 30 min preincubation, read-out: ATPase ADPGlo AC50 (uM)- Assay Format A
Summary of the method: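 Sf9-expressed FLAG-AVI-TEV-tagged WRN (0.5 nM) preincubated 30 min with compound (11-point 3-fold dilution). Reaction started with 200 nM C6.18 39-mer ssDNA and 20 μM ATP (addition concentrations), run 30 min at room temperature. ADP measured by ADP-Glo luminescence; IC50 from four-parameter fit, geometric mean of ≥2 runs.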

HT29 cells = assay: HT29 (MSS) 7 day viability, CellTiter Glo; assay type: cell-based; details: 7 days, read-out: HT29 (MSS) Viability 7 Day CTGAbs AC50
Summary of the method: as §1

T1 sequence (Q14191 2-1432): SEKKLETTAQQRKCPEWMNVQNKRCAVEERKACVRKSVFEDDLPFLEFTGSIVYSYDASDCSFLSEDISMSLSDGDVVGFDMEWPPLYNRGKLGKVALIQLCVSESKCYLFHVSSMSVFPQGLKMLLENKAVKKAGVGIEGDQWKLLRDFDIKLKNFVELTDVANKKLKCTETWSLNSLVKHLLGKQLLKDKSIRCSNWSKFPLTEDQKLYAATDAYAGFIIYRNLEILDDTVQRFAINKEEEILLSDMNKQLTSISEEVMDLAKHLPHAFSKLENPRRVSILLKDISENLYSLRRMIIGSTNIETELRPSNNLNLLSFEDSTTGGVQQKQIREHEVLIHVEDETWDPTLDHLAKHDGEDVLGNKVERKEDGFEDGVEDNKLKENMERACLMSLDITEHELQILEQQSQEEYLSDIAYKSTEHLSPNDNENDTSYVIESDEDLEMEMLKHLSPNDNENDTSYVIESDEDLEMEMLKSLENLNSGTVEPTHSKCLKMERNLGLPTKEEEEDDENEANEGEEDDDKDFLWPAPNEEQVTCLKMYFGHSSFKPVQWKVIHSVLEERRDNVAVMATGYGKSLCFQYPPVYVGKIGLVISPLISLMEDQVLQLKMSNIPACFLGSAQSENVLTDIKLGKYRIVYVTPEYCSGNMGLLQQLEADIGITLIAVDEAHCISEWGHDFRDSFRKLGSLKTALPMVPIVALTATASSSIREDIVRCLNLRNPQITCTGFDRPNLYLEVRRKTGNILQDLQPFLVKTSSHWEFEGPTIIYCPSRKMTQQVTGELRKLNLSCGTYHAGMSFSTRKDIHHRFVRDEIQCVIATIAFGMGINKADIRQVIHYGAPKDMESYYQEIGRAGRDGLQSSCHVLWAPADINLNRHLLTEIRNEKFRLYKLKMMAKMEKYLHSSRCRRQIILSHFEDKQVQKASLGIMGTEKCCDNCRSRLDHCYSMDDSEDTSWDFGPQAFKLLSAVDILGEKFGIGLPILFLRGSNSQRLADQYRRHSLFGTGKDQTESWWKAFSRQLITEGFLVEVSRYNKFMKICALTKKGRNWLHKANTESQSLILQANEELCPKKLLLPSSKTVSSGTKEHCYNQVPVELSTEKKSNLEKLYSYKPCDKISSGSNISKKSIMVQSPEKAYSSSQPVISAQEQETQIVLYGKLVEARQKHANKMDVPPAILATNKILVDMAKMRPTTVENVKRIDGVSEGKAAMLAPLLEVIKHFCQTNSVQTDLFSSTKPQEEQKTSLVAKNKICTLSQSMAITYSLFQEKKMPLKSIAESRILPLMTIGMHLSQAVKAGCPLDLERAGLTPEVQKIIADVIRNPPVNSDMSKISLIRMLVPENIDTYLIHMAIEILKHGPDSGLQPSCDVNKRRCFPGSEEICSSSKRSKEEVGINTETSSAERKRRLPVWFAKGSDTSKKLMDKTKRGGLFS

| Compound | AC50 [1] [µM] | AC50 (HCT116 cells; Homo sapiens, HCT-116, 168 h) [nM] | AC50 [2] [µM] | AC50 (HT29 cells; Homo sapiens, HT-29, 168 h) [nM] | AC50 (HCT116 cells) [nM] | AC50 (HT29 cells) [nM] |
| --- | --- | --- | --- | --- | --- | --- |
| C=CC(=O)N1CCc2nn(-c3ccc(C(C)C)cc3)c3c2C(C1)N(C(=O)c1ccc(Br)c2ncn(CC4CCO4)c12)CC3 (stereo not drawn) [Compound 82, 1-(5-(4-bromo-1-((oxetan-2-yl)methyl)-1H-benzo[d]imidazole-7-carbonyl)-2-(4-isopropylphenyl)-2,3,4,5,5a,6,8,9-octahydro-7H-1,2,5,7-tetraazabenzo[cd]azulen-7-yl)prop-2-en-1-one] | > 0.055 | 500 to 1000 | 0.005 to 0.015 | > 3000 | – | – |
| C=CC(=O)N1CCc2nn(-c3ccc(C(C)C)cc3)c3c2C(C1)N(C(=O)c1ccc(Br)c2[nH]c(N4CCC4)nc12)CC3 (stereo not drawn) [Compound 9, 1-(5-(2-(azetidin-1-yl)-7-bromo-1H-benzo[d]imidazole-4-carbonyl)-2-(4-isopropylphenyl)-2,3,4,5,5a,6,8,9-octahydro-7H-1,2,5,7-tetraazabenzo[cd]azulen-7-yl)prop-2-en-1-one] | 0.015 to 0.055 | 1 to 100 | 0.0015 to 0.005 | > 3000 | – | – |
| C=CC(=O)N1CC(OCC2=CCOCC2)c2nn(-c3ccc(C4CCC4)cc3)c3c2C(C1)N(C(=O)c1cnc(C(F)(F)F)cc1N)CC3 (stereo not drawn) [Compound 260, 1-(5-(4-amino-6-(trifluoromethyl)nicotinoyl)-2-(4-cyclobutylphenyl)-9-((3,6-dihydro-2H-pyran-4-yl)methoxy)-2,3,4,5,5a,6,8,9-octahydro-7H-1,2,5,7-tetraazabenzo[cd]azulen-7-yl)prop-2-en-1-one] | 0.0015 to 0.005 | 1 to 100 | < 0.0015 | > 3000 | – | – |
| C=CC(=O)N1CCc2nn(-c3ccc(C4CCC4)cc3O)c3c2C(C1)N(C(=O)c1ccc(C(F)(F)F)c2ncncc12)CC3 (stereo not drawn) [Compound 242, 1-(2-(4-cyclobutyl-2-hydroxyphenyl)-5-(8-(trifluoromethyl)quinazoline-5-carbonyl)-2,3,4,5,5a,6,8,9-octahydro-7H-1,2,5,7-tetraazabenzo[cd]azulen-7-yl)prop-2-en-1-one] | 0.015 to 0.055 | 1 to 100 | 0.0015 to 0.005 | > 3000 | – | – |
| C=CC(=O)N1CC(C)c2nn(-c3ccc(C4CCC4)cc3O)c3c2C(C1)N(C(=O)c1cnc(C(F)(F)F)cc1N)CC3 (stereo not drawn) [Compound 130, 1-(5-(4-amino-6-(trifluoromethyl)nicotinoyl)-2-(4-cyclobutyl-2-hydroxyphenyl)-9-methyl-2,3,4,5,5a,6,8,9-octahydro-7H-1,2,5,7-tetraazabenzo[cd]azulen-7-yl)prop-2-en-1-one] | 0.005 to 0.015 | 1 to 100 | < 0.0015 | > 3000 | – | – |
| C=CC(=O)N1CC(OCc2cccnc2)c2nn(-c3ccc(C4CC4)cc3)c3c2C(C1)N(C(=O)c1cnc(C(F)(F)F)cc1N)CC3 (stereo not drawn) [Compound 251, 1-(5-(4-amino-6-(trifluoromethyl)nicotinoyl)-2-(4-cyclopropylphenyl)-9-(pyridin-3-ylmethoxy)-2,3,4,5,5a,6,8,9-octahydro-7H-1,2,5,7-tetraazabenzo[cd]azulen-7-yl)prop-2-en-1-one] | 0.005 to 0.015 | 1 to 100 | < 0.0015 | > 3000 | – | – |
| C=CC(=O)N1CCc2nn(-c3ccc(C4CCC4)cc3O)c3c2C(C1)N(C(=O)c1ccc(Br)c2nc(C(F)F)[nH]c12)CC3 (stereo not drawn) [Compound 90, 1-(5-(4-bromo-2-(difluoromethyl)-1H-benzo[d]imidazole-7-carbonyl)-2-(4-cyclobutyl-2-hydroxyphenyl)-2,3,4,5,5a,6,8,9-octahydro-7H-1,2,5,7-tetraazabenzo[cd]azulen-7-yl)prop-2-en-1-one] | 0.005 to 0.015 | 1 to 100 | < 0.0015 | > 3000 | – | – |
| C=CC(=O)N1CCOc2nn(-c3ccc(C4CCC4)cc3O)c3c2C(C1)N(C(=O)c1ccc2c(Br)n[nH]c2c1)CC3 (stereo not drawn) [Compound 40, 1-(5-(3-bromo-1H-indazole-6-carbonyl)-2-(4-cyclobutyl-2-hydroxyphenyl)-2,3,4,5,5a,6,8,9-octahydro-7H-10-oxa-1,2,5,7-tetraazacycloocta[cd]inden-7-yl)prop-2-en-1-one] | 0.015 to 0.055 | 1 to 100 | < 0.0015 | > 3000 | – | – |
| C=CC(=O)N1CCc2nn(-c3ccc(C45CC(C4)C5)cc3)c3c2C(C1)N(C(=O)c1cnc(C(F)(F)F)cc1N)CC3 (stereo not drawn) [Compound 133, 1-(5-(4-amino-6-(trifluoromethyl)nicotinoyl)-2-(4-(bicyclo[1.1.1]pentan-1-yl)phenyl)-2,3,4,5,5a,6,8,9-octahydro-7H-1,2,5,7-tetraazabenzo[cd]azulen-7-yl)prop-2-en-1-one] | 0.005 to 0.015 | 1 to 100 | < 0.0015 | > 3000 | – | – |
| C=CC(=O)N1CCc2nn(-c3ccc(C4CC4)cc3O)c3c2C(C1)N(C(=O)c1ccc(C(F)(F)F)cc1N)CC3 (stereo not drawn) [Compound 245, 1-(5-(2-amino-4-(trifluoromethyl)benzoyl)-2-(4-cyclopropyl-2-hydroxyphenyl)-2,3,4,5,5a,6,8,9-octahydro-7H-1,2,5,7-tetraazabenzo[cd]azulen-7-yl)prop-2-en-1-one] | 0.005 to 0.015 | 1 to 100 | < 0.0015 | > 3000 | – | – |
| C=CC(=O)N1CCc2nn(-c3ccc(C4CC4)cc3)c3c2C(C1)N(C(=O)c1ccc2c(c1)[nH]c(=O)n2C)CC3 (stereo not drawn) [Compound 70, 5-(7-acryloyl-2-(4-cyclopropylphenyl)-3,4,5,5a,6,7,8,9-octahydro-2H-1,2,5,7-tetraazabenzo[cd]azulene-5-carbonyl)-1-methyl-1,3-dihydro-2H-benzo[d]imidazol-2-one] | > 0.055 | > 1000 | > 0.055 | > 3000 | – | – |
| C=CC(=O)N1CCc2nn(-c3ccc(C4CC4)cc3O)c3c2C(C1)N(C(=O)c1cnc(OC(F)F)cc1N)CC3 (stereo not drawn) [Compound 192, 1-(5-(4-amino-6-(difluoromethoxy)nicotinoyl)-2-(4-cyclopropyl-2-hydroxyphenyl)-2,3,4,5,5a,6,8,9-octahydro-7H-1,2,5,7-tetraazabenzo[cd]azulen-7-yl)prop-2-en-1-one] | 0.005 to 0.015 | 1 to 100 | < 0.0015 | > 3000 | – | – |
| C=CC(=O)N1CCc2nn(-c3ccc(C4CCC4)cc3O)c3c2C(C1)N(C(=O)c1ncc(C(F)(F)F)cc1N)CC3 (stereo not drawn) [Compound 142, 1-(5-(3-amino-5-(trifluoromethyl)picolinoyl)-2-(4-cyclobutyl-2-hydroxyphenyl)-2,3,4,5,5a,6,8,9-octahydro-7H-1,2,5,7-tetraazabenzo[cd]azulen-7-yl)prop-2-en-1-one] | 0.015 to 0.055 | 1 to 100 | < 0.0015 | > 3000 | – | – |
| C=CC(=O)N1CCc2nn(-c3ccc(C45CC(C4)C5)cc3)c3c2C(C1)N(C(=O)c1ccc(C(F)(F)F)nc1N)CC3 (stereo not drawn) [Compound 152, 1-(5-(2-amino-6-(trifluoromethyl)nicotinoyl)-2-(4-(bicyclo[1.1.1]pentan-1-yl)phenyl)-2,3,4,5,5a,6,8,9-octahydro-7H-1,2,5,7-tetraazabenzo[cd]azulen-7-yl)prop-2-en-1-one] | 0.015 to 0.055 | 1 to 100 | < 0.0015 | > 3000 | – | – |
| C=CC(=O)N1CCc2nn(-c3ccc(C4CCC4)cc3O)c3c2C(C1)N(C(=O)c1ccc(Br)c2[nH]ncc12)CC3 (stereo not drawn) [Compound 87, 1-(5-(7-bromo-1H-indazole-4-carbonyl)-2-(4-cyclobutyl-2-hydroxyphenyl)-2,3,4,5,5a,6,8,9-octahydro-7H-1,2,5,7-tetraazabenzo[cd]azulen-7-yl)prop-2-en-1-one] | 0.0015 to 0.005 | 1 to 100 | < 0.0015 | > 3000 | – | – |
| C=CC(=O)N1CC(OCC2CCOCC2)c2nn(-c3ccc(C4CC4)cc3)c3c2C(C1)N(C(=O)c1cnc(C(F)(F)F)cc1N)CC3 (stereo not drawn) [Compound 255, 1-(5-(4-amino-6-(trifluoromethyl)nicotinoyl)-2-(4-cyclopropylphenyl)-9-((tetrahydro-2H-pyran-4-yl)methoxy)-2,3,4,5,5a,6,8,9-octahydro-7H-1,2,5,7-tetraazabenzo[cd]azulen-7-yl)prop-2-en-1-one] | 0.005 to 0.015 | 1 to 100 | < 0.0015 | > 3000 | – | – |
| C=CC(=O)N1CCc2nn(-c3ccc(C(C)C)cc3)c3c2C(C1)N(C(=O)c1ccc(Br)c2ncn(CC4CCO4)c12)CC3 (stereo not drawn) [Compound 83, 1-(5-(4-bromo-1-((oxetan-2-yl)methyl)-1H-benzo[d]imidazole-7-carbonyl)-2-(4-isopropylphenyl)-2,3,4,5,5a,6,8,9-octahydro-7H-1,2,5,7-tetraazabenzo[cd]azulen-7-yl)prop-2-en-1-one] | > 0.055 | – | 0.005 to 0.015 | – | 500 to 1000 | > 3000 |
| COC/C=C/C(=O)N1CCc2nn(-c3ccc(C4CCC4)cc3O)c3c2C(C1)N(C(=O)c1cnc(C(F)(F)F)cc1N)CC3 (stereo not drawn) [Compound 239, 1-(5-(4-amino-6-(trifluoromethyl)nicotinoyl)-2-(4-cyclobutyl-2-hydroxyphenyl)-2,3,4,5,5a,6,8,9-octahydro-7H-1,2,5,7-tetraazabenzo[cd]azulen-7-yl)-4-methoxybut-2-en-1-one] | > 0.055 | 100 to 250 | 0.005 to 0.015 | > 3000 | – | – |
